The target in the first assay is T1, Wee1 kinase domain (Homo sapiens, UniProt P30291).
T1 construct: Wee1 kinase domain was purchased from Carna (catalog #05-177); purchased Carna 05-177
T1 sequence (P30291 299-569 limits assumed): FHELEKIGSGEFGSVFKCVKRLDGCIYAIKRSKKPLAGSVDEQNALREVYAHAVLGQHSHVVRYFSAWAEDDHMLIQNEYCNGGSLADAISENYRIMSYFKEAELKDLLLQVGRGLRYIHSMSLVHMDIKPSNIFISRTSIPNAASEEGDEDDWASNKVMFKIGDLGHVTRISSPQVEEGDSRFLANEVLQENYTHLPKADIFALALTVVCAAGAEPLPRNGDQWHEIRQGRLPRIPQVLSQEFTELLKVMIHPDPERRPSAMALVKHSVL
Nature of the assay: Wee1 Kinase Biochemical Assay (ADP-Glo). Particulars: Wee1 kinase domain, 15 uM ATP, ADP-Glo. The procedure, abridged:
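The reaction mix held 1 nM Wee1 kinase domain, 15 uM ATP and 2 ng/mL Poly(Lys,Tyr 4:1) substrate and was left for 4 hours at 25 °C. ADP production was then measured with ADP-Glo, and percent inhibition was derived relative to DMSO and a saturating Wee1 inhibitor.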
For the compound `C[C@H]1COC(=O)N1c1cccc(N2c3nc(Nc4ccc(O[C@H]5CCN(C)C5)nc4)ncc3[C@]3(C)COC(C)(C)C[C@H]23)n1` (single isomer, unassigned) [Example 280], the half-maximal inhibitory concentration (IC50) lay within 0.1 to 1 µM.
On to `CC1(C)C[C@H]2N(c3cccc(N=S(C)(C)=O)n3)c3nc(Nc4ncccc4F)ncc3[C@@]2(C)CO1` (single isomer, unassigned) [Example 368], for which the IC50 lay in the range of 0.01 to 0.1 µM.
Same read-out and setting: the same measure for `C[C@H]1COC(=O)N1c1cccc(N2c3nc(Nc4ccc(N5CCN(C)CC5)nc4)ncc3[C@]3(C)COC(C)(C)C[C@H]23)n1` (single isomer, unassigned) [Example 240]: 0.1 to 1 µM.
In turn, `C[C@H]1COC(=O)N1c1cccc(N2c3nc(Nc4ccc([C@@H]5CCNC5)cc4)ncc3[C@]3(C)COC(C)(C)C[C@H]23)n1` (single isomer, unassigned) [Example 274] showed an IC50 of 0.01 to 0.1 µM.
Still for that read-out and setting: the result for `C[C@H]1COC(=O)N1c1cccc(N2c3nc(Nc4ccc([C@]5(C)CCN(C)C5)cc4)ncc3[C@]3(C)COC(C)(C)C[C@H]23)n1` (single isomer, unassigned) [Example 350] reads 0.01 to 0.1 µM; that for `CC1(C)C[C@@H]2N(c3cccc(N=S(C)(C)=O)n3)c3nc(Nc4ccc(C5CNC5)cc4)ncc3[C@]2(C)CO1` (single isomer, unassigned) [Example 164], 0.01 to 0.1 µM.
Compound `CN1Cc2cc(Nc3ncc4c(n3)N(c3cccc(N=S(C)(C)=O)n3)[C@H]3CC(C)(C)OC[C@@]43C)ccc2C2(CC2)C1` (single isomer, unassigned) [Example 108] had an IC50 of 0.01 to 0.1 µM.
The compound `CN1C[C@@H]2C[C@H]1CN2c1ccc(Nc2ncc3c(n2)N(c2cccc(N=S(C)(C)=O)n2)[C@H]2CC(C)(C)OC[C@@]32C)cc1F` (single isomer, unassigned) [Example 179] showed an IC50 of 0.1 to 1 µM.
Same read-out and setting: the result for `CNC(=O)c1ccc(Nc2ncc3c(n2)N(c2cccc(N=S(C)(C)=O)n2)[C@H]2CC(C)(C)OC[C@@]32C)cc1` (single isomer, unassigned) [Example 116] reads 0.1 to 1 µM; that for `CNCc1cccc(N2c3nc(Nc4ccc(N5C(=O)CC[C@H]5C)cc4)ncc3[C@]3(C)COC(C)(C)C[C@H]23)n1` (single isomer, unassigned) [Example 29], 0.01 to 0.1 µM.
In the case of `CN1CC(c2ccc(Nc3ncc4c(n3)N(c3cccc(N=S(C)(C)=O)n3)[C@H]3CC(C)(C)OC[C@@]43C)cc2F)C1` (single isomer, unassigned) [Example 185], the IC50 fell in the range of 0.1 to 1 µM.
Same read-out and setting: the same measure for `C[C@@H]1CN(c2ccc(Nc3ncc4c(n3)N(c3cccc(N5C(=O)OC[C@@H]5C)n3)[C@H]3CC(C)(C)OC[C@@]43C)cc2)CCN1C` (single isomer, unassigned) [Example 312]: 0.01 to 0.1 µM; for `C[C@H]1COC(=O)N1c1cccc(N2c3nc(Nc4ccc(N5C[C@@H]6C[C@H]5CN6C)cc4)ncc3[C@]3(C)COC(C)(C)C[C@H]23)n1` (single isomer, unassigned) [Example 244]: 0.01 to 0.1 µM.

The same assay, now with this note: class symbols; 1 nM Wee1 enzyme, 15 uM ATP, 4 hours at 25° C.
In turn, `CN1C[C@H]2C[C@@H]1CN2c1ccc(Nc2ncc3c(n2)N(c2cccc(N4CCCC4=O)n2)[C@H]2CC(C)(C)OC[C@@]32C)cc1F` [Example 639, 1-(6-((4bS,8aS)-2-((3-fluoro-4-((1R,4R)-5-methyl-2,5-diazabicyclo[2.2.1]heptan-2-yl)phenyl)amino)-4b,7,7-trimethyl-4b,7,8,8a-tetrahydropyrano[3′,4′:4,5]pyrrolo[2,3-d]pyrimidin-9(5H)-yl)pyridin-2-yl)pyrrolidin-2-one] came in with an IC50 of 0.01 to 0.1 µM.
Same read-out and setting: the result for `CN1CC[C@H](Oc2ccc(Nc3ncc4c(n3)N(c3cccc(C(C)(C)O)n3)[C@H]3CC(C)(C)OC[C@@]43C)cc2)C1` (single isomer, unassigned) [Example 422] reads 0.01 to 0.1 µM; that for `CNCc1cccc(N2c3nc(NC(=O)[C@H]4C[C@@H]4c4ccccc4)ncc3[C@@]3(C)COC(C)(C)C[C@@H]23)n1` [Example 761, (1S,2S)-2-phenyl-N-((4bR,8aR)-4b,7,7-trimethyl-9-(6-((methylamino)methyl)pyridin-2-yl)-4b,5,7,8,8a,9-hexahydropyrano[3′,4′:4,5]pyrrolo[2,3-d]pyrimidin-2-yl)cyclopropane-1-carboxamide], 0.01 to 0.1 µM; that for `CNCc1cccc(N2c3nc(Nc4ccc(-n5ccnc5)nc4)ncc3[C@]3(C)COC(C)(C)C[C@H]23)n1` (single isomer, unassigned) [Example 467], ≥ 1 µM.
Same read-out and setting: the result for `Cc1cc(Nc2ncc3c(n2)N(c2cccc(N4CCOC4=O)n2)[C@H]2CC(C)(C)OC[C@@]32C)ccc1C1CCN(C)CC1` (single isomer, unassigned) [Example 596] reads 0.01 to 0.1 µM.
On the same count and under the same terms, the same measure for `Cc1cc(Nc2ncc3c(n2)N(c2cccc(C(=O)N(C)C)n2)[C@H]2CC(C)(C)OC[C@@]32C)ccc1C1CCN(C)CC1` (single isomer, unassigned) [Example 584]: 0.1 to 1 µM.
As to `CN1C[C@H]2C[C@@H]1CN2c1ccc(Nc2ncc3c(n2)N(c2cccc(N4CCCC4=O)n2)[C@H]2CC(C)(C)OC[C@@]32C)cc1` [Example 630, 1-(6-((4bS,8aS)-4b,7,7-trimethyl-2-((4-((1R,4R)-5-methyl-2,5-diazabicyclo[2.2.1]heptan-2-yl)phenyl)amino)-4b,7,8,8a-tetrahydropyrano[3′,4′:4,5]pyrrolo[2,3-d]pyrimidin-9(5H)-yl)pyridin-2-yl)pyrrolidin-2-one], the IC50 lay within 0.1 to 1 µM.
On the same count and under the same terms, the result for `CC1(C)C[C@H]2N(c3cccc(N=S(C)(C)=O)n3)c3nc(NC(=O)C4(F)CC4)ncc3[C@@]2(C)CO1` (single isomer, unassigned) [Example 410] reads 0.01 to 0.1 µM.
Still for that read-out and setting: the same measure for `CC1(C)C[C@@H]2N(c3ccc4c(n3)[C@@](C)(N)CC4)c3nc(Nc4ccc(N5CCOCC5)cc4)ncc3[C@]2(C)CO1` (single isomer, unassigned) [Example 566]: ≥ 1 µM.
Still for that read-out and setting: the result for `CC1(C)C[C@@H]2N(c3cccc(N4CCOC4=O)n3)c3nc(Nc4ccc([C@@H]5CCNC5)cc4)ncc3[C@]2(C)CO1` (single isomer, unassigned) [Example 606] reads 0.01 to 0.1 µM.
In turn, `CN1CC[C@H](Oc2ccc(Nc3ncc4c(n3)N(c3cccc(N5CCCC5=O)n3)[C@H]3CC(C)(C)OC[C@@]43C)cc2)C1` [Example 619, 1-(6-((4bS,8aS)-4b,7,7-trimethyl-2-((4-(((S)-1-methylpyrrolidin-3-yl)oxy)phenyl)amino)-4b,7,8,8a-tetrahydropyrano[3′,4′:4,5]pyrrolo[2,3-d]pyrimidin-9(5H)-yl)pyridin-2-yl)pyrrolidin-2-one] displayed an IC50 of 0.01 to 0.1 µM.
For the compound `CN1CCC(c2ccc(Nc3ncc4c(n3)N(c3cccc(N=S(C)(C)=O)c3)[C@H]3CC(C)(C)OC[C@@]43C)cn2)CC1` [Example 709, dimethyl((3-((4bS,8aS)-4b,7,7-trimethyl-2-((6-(1-methylpiperidin-4-yl)pyridin-3-yl)amino)-4b,7,8,8a-tetrahydropyrano[3′,4′:4,5]pyrrolo[2,3-d]pyrimidin-9(5H)-yl)phenyl)imino)-16-sulfanone], the 50% inhibitory concentration (IC50) was ≥ 1 µM.
On the same count and under the same terms, the result for `CC1(C)C[C@H]2N(c3cccc(N4CCOC4=O)n3)c3nc(Nc4ccc(N5CCNCC5)cc4)ncc3[C@@]2(C)CO1` (single isomer, unassigned) [Example 601] reads < 0.01 µM.

For the origin of these results see patent US20260166039A1 (SCHRÖDINGER, INC., priority 2022, published 2026).
